Results reported in patent US7544687B2, “Substituted α-piperazinyl phenylpropionic acid derivatives as hPPAR α and/or hPPAR γ agonists” (Beijing Molecule Science and Technology Co., Ltd, priority 2004, dated 2009).

What was measured:
Human PPARα = target: T1, Human PPARα (Homo sapiens, UniProt Q07869); assay: Activation of human PPARα, GAL4 chimeric receptor luciferase reporter assay in transiently transfected 293-T cells; type: cell-based; settings: for Photon number (×10^4) / Increased multiple vs control: compounds 10 μM, PPARα; for Photon number (×10^4): luciferase 24 h after administration; for Increased multiple vs control: vs DMSO control
T1 construct: expressed in transfected cells; host or cells: 293-T cells, transient transfection
T1 sequence (Q07869 239-466 limits assumed): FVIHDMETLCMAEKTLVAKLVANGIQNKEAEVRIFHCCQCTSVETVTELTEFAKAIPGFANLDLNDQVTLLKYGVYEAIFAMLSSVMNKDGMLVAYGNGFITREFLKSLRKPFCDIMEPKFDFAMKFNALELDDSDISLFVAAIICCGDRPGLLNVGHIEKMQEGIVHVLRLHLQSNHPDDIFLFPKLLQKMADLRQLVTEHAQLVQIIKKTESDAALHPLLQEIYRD
Procedure: (§1) The compounds were screened with respect to their functional effect of instantaneous transfection in 293-T cells, so that their capabilities of activating PPAR subtypes were determined. A chimeric receptor system as established in advance was used to compare the influence of receptor subtypes on the transcription activity of same target gene. Human PPARα and PPARγ ligand-binding domains were fused respectively with yeast transcription factor GAL4 DNA-binding domains, and then linked to expression vector pM of mammal, to thereby construct two plasmids pM-hPPARα/GAL4 and pM-PPARγ/GAL4. GAL4 DNA-binding area was linked to pB4-tk-luc, to thereby construct pB4-RES-tk-luc (a firefly luciferase reporter gene comprising GAL4 DNA-binding site). pRL-CMV-Rluc was used as an internal control to normalize transfection efficiency and endogenous influence.
293-T cells were incubated in a 48-well plate at a cell density of 2-4×10^4/well, using a phenol red-free and antibiotic-free 1640 medium containing 10% defatted fetal calf serum (FCS). After culturing for 48 h, the medium was replaced with a phenol red-free and antibiotic-free 1640 medium containing 5% defatted FCS, and then three plasmids pM-hPPAR/GAL4, pB4-RES-tk-luc and pRL-CMV-Rluc pertaining to two subtypes were respectively co-transfected into the 293-T cells. The strength of luciferase was measured at the time of 24 h after administration, with 0.2% DMSO as a blank control.

Human PPARγ = target: T2, Human PPARγ (Homo sapiens, UniProt P37231); assay: Activation of human PPARγ, GAL4 chimeric receptor luciferase reporter assay in transiently transfected 293-T cells; type: cell-based
T2 construct: expressed in transfected cells; host or cells: 293-T cells, transient transfection
T2 sequence (P37231 238-503 limits assumed): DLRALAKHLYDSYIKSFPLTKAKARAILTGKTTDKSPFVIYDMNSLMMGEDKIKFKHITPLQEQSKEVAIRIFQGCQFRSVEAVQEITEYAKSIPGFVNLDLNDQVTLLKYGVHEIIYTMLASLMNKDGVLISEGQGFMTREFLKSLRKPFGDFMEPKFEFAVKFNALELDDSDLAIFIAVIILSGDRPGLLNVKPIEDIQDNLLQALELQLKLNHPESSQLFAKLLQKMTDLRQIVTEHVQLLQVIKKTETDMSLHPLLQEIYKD
From the text: as §1, with “A” for “The compounds were screened with respect to their functional effect of instantaneous transfection in 293-T cells, so that their capabilities of activating PPAR subtypes were determined. A”
The strength of luciferase was measured at the time of 24 h after administration, with 0.2% DMSO as a blank control.

Structure (SMILES)	Photon number (×10^4) (Human PPARα)	Increased multiple vs control (Human PPARα)	melting point	other results
Cc1cccc(N2CCN([C@@H](Cc3ccc(OCCc4nc(-c5ccccc5)oc4C)cc3)C(=O)O)CC2)c1 [Example 1, (2S)-3-{4-[2-(5-methyl-2-phenyl-1,3-oxazol-4-yl)-ethoxy]-phenyl}-2-(4-m-tolyl-piperazin-1-yl)-propionic acid]	11.3 ×10^4	5.3	–	–
Cc1oc(-c2ccccc2)nc1CCOc1ccc(C[C@@H](C(=O)O)N2CCN(c3ccccc3)CC2)cc1 [Example 8, (2S)-3-{4-[2-(5-methyl-2-phenyl-1,3-oxazol-4-yl)-ethoxy]-phenyl}-2-(4-phenyl-piperazin-1-yl)-propionic acid]	13.2 ×10^4	6.3	218 to 220 °C	–
Cc1oc(-c2ccccc2)nc1CCOc1ccc(C[C@@H](C(=O)O)N2CCN(c3cccc(Cl)c3)CC2)cc1 [Example 7, (2S)-2-[4-(m-chloro-phenyl)-piperazin-1-yl]-3-{4-[2-(5-methyl-2-phenyl-1,3-oxazol-4-yl)-ethoxy]-phenyl}-propionic acid]	–	–	138 to 139 °C	–
Cc1oc(-c2ccccc2)nc1CCOc1ccc(C[C@@H](C(=O)O)N2CCN(S(=O)(=O)c3ccccc3F)CC2)cc1 [Example 3, (2S)-2-[4-(2-fluoro-benzenesulfonyl)-piperazin-1-yl]-3-{4-[2-(5-methyl-2-phenyl-1,3-oxazol-4-yl)-ethoxy]-phenyl}-propionic acid]	–	–	170 to 172 °C	–
Cc1oc(-c2ccccc2)nc1CCOc1ccc(C[C@@H](C(=O)O)N2CCN(S(=O)(=O)c3ccc(F)cc3)CC2)cc1 [Example 4, (2S)-2-[4-(4-fluoro-benzenesulfonyl)-piperazin-1-yl]-3-{4-[2-(5-methyl-2-phenyl-1,3-oxazol-4-yl)-ethoxy]-phenyl}-propionic acid]	6.8 ×10^4	3.2	198 to 200 °C	Photon number (×10^4) (Human PPARγ; compounds 10 μM, PPARγ, luciferase 24 h after administration): 2.8 ×10^4; Increased multiple vs control (Human PPARγ; compounds 10 μM, PPARγ, vs control): 2.0
Cc1oc(-c2ccccc2)nc1CCOc1ccc(C[C@@H](C(=O)O)N2CCN(S(=O)(=O)c3ccccc3[N+](=O)[O-])CC2)cc1 [Example 6, (2S)-2-[4-(2-nitro-benzenesulfonyl)-piperazin-1-yl]-3-{4-[2-(5-methyl-2-phenyl-1,3-oxazol-4-yl)-ethoxy]-phenyl}-propionic acid]	–	–	171 to 173 °C	EC50 (Human PPARα; activation of PPARα): 1050 nM; EC50 (Human PPARγ; activation of PPARγ): 3200 nM
Cc1oc(-c2ccccc2)nc1CCOc1ccc(C[C@@H](C(=O)O)N2CCN(c3ccccc3)CC2)cc1Br [Example 10, (2S)-3-{3-bromo-4-[2-(5-methyl-2-phenyl-1,3-oxazol-4-yl)-ethoxy]-phenyl}-2-(4-phenylpiperazin-1-yl)-propanoic acid]	–	–	220 to 222 °C	–
